Read-outs that look alike come from different tables or passages of the source.
Assay: Resmetirom exposure parameters by dose, quartile and body weight
Assay type: in vivo, human
Details: for AUC / Cmax: human, in vivo, oral
Protocol: Various body weight cutoffs for dosing were evaluated.

CC(C)c1cc(Oc2c(Cl)cc(-n3nc(C#N)c(=O)[nH]c3=O)cc2Cl)n[nH]c1=O [Resmetirom, 2-(3,5-dichloro-4-((5-isopropyl-6-oxo-1,6-dihydropyridazin-3-yl)oxy)phenyl)-3,5-dioxo-2,3,4,5-tetrahydro-1,2,4-triazine-6-carbonitrile]
t1/2α Geometric Mean (100 mg, <80 kg): 1.26 h | t1/2α Mean (100 mg, <80 kg): 1.47 h | t1/2α Median (100 mg, <80 kg): 1.44 h | t1/2β Geometric Mean (100 mg, <80 kg): 5.36 h | t1/2β Mean (100 mg, <80 kg): 6.85 h | t1/2β Median (100 mg, <80 kg): 4.41 h | Percentage of Cave,ss in quartile (100 mg; Q1: [20-155) ng/mL): 19% | Percentage of Cave,ss in quartile (100 mg; Q2: [155-219) ng/mL): 19% | Percentage of Cave,ss in quartile (100 mg; Q3: [219-321) ng/mL): 28% | Percentage of Cave,ss in quartile (100 mg, Q4: [321-1326] ng/mL): 34% | Cmin,ss Geometric Mean (100 mg, ≥110 kg): 16.2 ng/mL | Cmin,ss Mean (100 mg, ≥110 kg): 43.4 ng/mL | Cmin,ss Median (100 mg, ≥110 kg): 12.8 ng/mL | t1/2α Geometric Mean (100 mg, ≥110 kg): 1.24 h | t1/2α Mean (100 mg, ≥110 kg): 1.38 h | t1/2α Median (100 mg, ≥110 kg): 1.30 h | t1/2β Geometric Mean (100 mg, ≥110 kg): 5.32 h | t1/2β Mean (100 mg, ≥110 kg): 6.33 h | t1/2β Median (100 mg, ≥110 kg): 4.50 h | AUC (80 mg, 80-<90 kg, read-out: AUCtau,ss Geometric Mean): 6010 ng·h/mL | AUC (80 mg, 80-<90 kg, read-out: AUCtau,ss Mean): 6660 ng·h/mL | AUC (80 mg, 80-<90 kg, read-out: AUCtau,ss Median): 5750 ng·h/mL | Cmax (80 mg, 80-<90 kg, read-out: Cmax,ss Geometric Mean): 816 ng/mL | Cmax (80 mg, 80-<90 kg, read-out: Cmax,ss Mean): 869 ng/mL | Cmax (80 mg, 80-<90 kg, read-out: Cmax,ss Median): 870 ng/mL | AUC (80 mg, 90-<100 kg, read-out: AUCtau,ss Geometric Mean): 5060 ng·h/mL | AUC (80 mg, 90-<100 kg, read-out: AUCtau,ss Mean): 5790 ng·h/mL | AUC (80 mg, 90-<100 kg, read-out: AUCtau,ss Median): 5030 ng·h/mL | Cmax (80 mg, 90-<100 kg, read-out: Cmax,ss Geometric Mean): 745 ng/mL | Cmax (80 mg, 90-<100 kg, read-out: Cmax,ss Mean): 789 ng/mL | Cmax (80 mg, 90-<100 kg, read-out: Cmax,ss Median): 795 ng/mL | AUC (80 mg, 100-<110 kg, read-out: AUCtau,ss Geometric Mean): 4370 ng·h/mL | AUC (80 mg, 100-<110 kg, read-out: AUCtau,ss Mean): 4740 ng·h/mL | AUC (80 mg, 100-<110 kg, read-out: AUCtau,ss Median): 4400 ng·h/mL | Cmax (80 mg, 100-<110 kg, read-out: Cmax,ss Geometric Mean): 624 ng/mL | Cmax (80 mg, 100-<110 kg, read-out: Cmax,ss Mean): 654 ng/mL | Cmax (80 mg, 100-<110 kg, read-out: Cmax,ss Median): 644 ng/mL | AUC (80 mg, <80 kg, read-out: AUCtau,ss Geometric Mean): 8080 ng·h/mL | AUC (80 mg, <80 kg, read-out: AUCtau,ss Mean): 9230 ng·h/mL | AUC (80 mg, <80 kg, read-out: AUCtau,ss Median): 8180 ng·h/mL | Cmax (80 mg, <80 kg, read-out: Cmax,ss Geometric Mean): 1120 ng/mL | Cmax (80 mg, <80 kg, read-out: Cmax,ss Mean): 1210 ng/mL | Cmax (80 mg, <80 kg, read-out: Cmax,ss Median): 1140 ng/mL | AUC (80 mg, ≥110 kg, read-out: AUCtau,ss Geometric Mean): 3470 ng·h/mL | AUC (80 mg, ≥110 kg, read-out: AUCtau,ss Mean): 3750 ng·h/mL | AUC (80 mg, ≥110 kg, read-out: AUCtau,ss Median): 3550 ng·h/mL | Cmax (80 mg, ≥110 kg, read-out: Cmax,ss Geometric Mean): 489 ng/mL | Cmax (80 mg, ≥110 kg, read-out: Cmax,ss Mean): 520 ng/mL | Cmax (80 mg, ≥110 kg, read-out: Cmax,ss Median): 504 ng/mL | AUC (100 mg, 80-<90 kg, read-out: AUCtau,ss Geometric Mean): 8550 ng·h/mL | AUC (100 mg, 80-<90 kg, read-out: AUCtau,ss Mean): 9660 ng·h/mL | AUC (100 mg, 80-<90 kg, read-out: AUCtau,ss Median): 7550 ng·h/mL | Cmax (100 mg, 80-<90 kg, read-out: Cmax,ss Geometric Mean): 1160 ng/mL | Cmax (100 mg, 80-<90 kg, read-out: Cmax,ss Mean): 1220 ng/mL | Cmax (100 mg, 80-<90 kg, read-out: Cmax,ss Median): 1200 ng/mL | AUC (100 mg, 90-<100 kg, read-out: AUCtau,ss Geometric Mean): 7990 ng·h/mL | AUC (100 mg, 90-<100 kg, read-out: AUCtau,ss Mean): 9010 ng·h/mL | AUC (100 mg, 90-<100 kg, read-out: AUCtau,ss Median): 7600 ng·h/mL | Cmax (100 mg, 90-<100 kg, read-out: Cmax,ss Geometric Mean): 954 ng/mL | Cmax (100 mg, 90-<100 kg, read-out: Cmax,ss Mean): 1010 ng/mL | Cmax (100 mg, 90-<100 kg, read-out: Cmax,ss Median): 1060 ng/mL | AUC (100 mg, 100-<110 kg, read-out: AUCtau,ss Geometric Mean): 6690 ng·h/mL | AUC (100 mg, 100-<110 kg, read-out: AUCtau,ss Mean): 7430 ng·h/mL | AUC (100 mg, 100-<110 kg, read-out: AUCtau,ss Median): 6250 ng·h/mL | Cmax (100 mg, 100-<110 kg, read-out: Cmax,ss Geometric Mean): 905 ng/mL | Cmax (100 mg, 100-<110 kg, read-out: Cmax,ss Mean): 958 ng/mL | Cmax (100 mg, 100-<110 kg, read-out: Cmax,ss Median): 966 ng/mL | AUC (100 mg, <80 kg, read-out: AUCtau,ss Geometric Mean): 8680 ng·h/mL | AUC (100 mg, <80 kg, read-out: AUCtau,ss Mean): 10800 ng·h/mL | AUC (100 mg, <80 kg, read-out: AUCtau,ss Median): 9610 ng·h/mL | Cmax (100 mg, <80 kg, read-out: Cmax,ss Geometric Mean): 1120 ng/mL | Cmax (100 mg, <80 kg, read-out: Cmax,ss Mean): 1310 ng/mL | Cmax (100 mg, <80 kg, read-out: Cmax,ss Median): 1370 ng/mL | AUC (100 mg, ≥110 kg, read-out: AUCtau,ss Geometric Mean): 4330 ng·h/mL | AUC (100 mg, ≥110 kg, read-out: AUCtau,ss Mean): 4940 ng·h/mL | AUC (100 mg, ≥110 kg, read-out: AUCtau,ss Median): 3900 ng·h/mL | Cmax (100 mg, ≥110 kg, read-out: Cmax,ss Geometric Mean): 575 ng/mL | Cmax (100 mg, ≥110 kg, read-out: Cmax,ss Mean): 642 ng/mL | Cmax (100 mg, ≥110 kg, read-out: Cmax,ss Median): 647 ng/mL

Reference: patent US12377104B1, “Methods for treating a fatty liver disease” (Madrigal Pharmaceuticals, Inc., priority 2024, dated 2025)
